# Measurements reported in article PMC4102417 (PLoS Neglected Tropical Diseases, 2014).
# Where two headings read alike, the source gives them in different places.
# What was measured:
# [1] = tested on: T. cruzi (Tulahuen strain); assay: Mouse model of acute T. cruzi infection; format: in vivo, BALB/c mice; conditions: oral gavage days 7-11 post-infection, doses of Table 5
# Procedure: Age 8–10 week-old BALB/c female mice were obtained from Harlan Laboratories. Mice were infected with 1×10^4 tissue culture derived wild-type trypomastigotes of the Tulahuen strain by subcutaneous injection on day 0. They were administered test drugs in groups of five by oral gavage on days 7–11. All drugs were dissolved in vehicle composed of sodium carboxymethylcellulose 0.5% w/v, benzyl alcohol 0.5% v/v, Tween 80 0.4% v/v diluted in 0.9% aqueous NaCl solution. Parasitemia was quantified by examining tail blood specimens at times points indicated in Figures 2, 3, S4, and S5 as previously described.
# Selected drugs identified in the above screens were tested alone or in combination in the mouse model of T. cruzi infection. In the first experiment, we focused on posaconazole and benznidazole because of their advanced clinical status for treating Chagas disease. Since benznidazole and posaconazole are known to have curative activity as monotherapies, we used sub-curative doses so that additive or synergistic interactions could be detected when used in combinations. The other drugs were administered at doses described in the literature for treating mice. Briefly, mice were gavaged once or twice daily with a given drug or combination on days 7–11 post-infection. We conducted a second experiment (Figure 3) examining the same drugs with the purpose of confirming and expanding upon the initial results shown in Figure 2.
# 3T3 fibroblast cells = assay: cells; format: cell-based, murine; conditions: for activity at 10 µM: Mus musculus, NIH3T3, 72 h, Table S2, read-out: Mammalian (3T3) cell % growth at 10 uM
# T. cruzi amastigotes = assay: Combination screen of drug pairs at EC25; format: cell-based, Trypanosoma cruzi; conditions: at EC25, alone or in combination
# Procedure: […] compounds were selected for testing in combinations. All two-way combinations were tested (300 experiments). First, EC25 concentrations were determined for the individual compounds against T. cruzi amastigotes as described above. To test for synergy, compounds were evaluated in quadruplicate individually at the experimentally determined EC25, and in combination with other compounds at each respective EC25 concentration (further explained in the Discussion section). For inclusion in downstream analysis, each individual compound in a pair was required to inhibit 25±10% of growth in positive control (untreated) wells. If not in this range, the experiment was repeated. The measured growth of T. cruzi amastigotes was compared to the predicted effect of the combination as follows. Assuming a simple additive effect, the predicted inhibition of the drug pairs was expected to be the product of the percent-growths of each compound when tested alone. For example, if compound A gave 75% growth of the control and compound B gave 80% of the control growth, then the combination would be predicted to be 60% (i.e., 75%×80% = 60%).
# Cells in green indicate a greater effect than predicted (“synergism”) and the squares in red indicate a lesser effect than predicated (“antagonism”).
# in vitro = format: cell-based, murine; conditions: mouse, 3T3 fibroblasts, 72 hours; separate assays separated by semicolons; read-out: Mammalian cell CC50
# [2] = tested on: T. cruzi (Tulahuen strain); assay: microbe, parasite or virus in culture; format: cell-based, Trypanosoma cruzi; conditions: for activity at 10 µM: Table S2, read-out: T. cruzi % growth @ 10 uM (Amastigotes); for EC50: read-out: T. cruzi EC50
# How it was run: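 Tulahuen parasites expressing beta-galactosidase were added (1×10^4 trypomastigotes/well) to 3T3 fibroblasts plated 24 h earlier, 4 h before compound (10 µM final).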
# T. brucei = conditions: cited from earlier work
# [3] = Trypanosoma cruzi, TULAHUEN, Fibroblast, 120 h
# [4] = Trypanosoma cruzi, TULAHUEN, Fibroblast, 120 h, intracellular amastigotes, 5 days, separate assays separated by semicolons
# [5] = average mammalian cell CC50 divided by average T. cruzi EC50
Structure (SMILES),parasitemia [1],activity at 10 µM (3T3 fibroblast cells) [%],% of normal growth (T. cruzi amastigotes) [%],CC50 (in vitro) [µM],"activity at 10 µM [2, 3] [%]","EC50 [2, 4] [µM]","Selectivity index [2, 5]","EC50 ([2]; intracellular amastigotes, 5 days, separate assays separated by semicolons) [µM]",EC50 (T. brucei) [µM],"EC50 ([2]; Trypanosoma cruzi, TULAHUEN, Fibroblast) [µM]","CC50 (3T3 fibroblast cells; 3T3 fibroblasts, 72 hours, separate assays separated by semicolons, read-out: Mammalian cell CC50) [µM]",activity against T. brucei (T. brucei; no reference given) [µM],Selectivity index [2],"EC50 ([2]; Trypanosoma cruzi, TULAHUEN, Fibroblast, Table S2, amastigotes) [µM]"
"CN1CCCC1CCOC(C)(c1ccccc1)c1ccc(Cl)cc1 (stereo not shown) [Clemastine, 2-{2-[1-(4-chlorophenyl)-1-phenylethoxy]ethyl}-1-methylpyrrolidine]",no differences compared to the vehicle treated mice,93.2,74,,,,,,,,,,,
"Clc1ccc(C(OCCN2CCCCC2)c2ccccc2)cc1 (stereo not shown) [Cloperastine, 1-{2-[(4-chlorophenyl)(phenyl)methoxy]ethyl}piperidine]",,100,79,21.4,1.2,5.8,3.8,5.6,,,,,,
"CCc1nc(N)nc(N)c1-c1ccc(Cl)cc1 [Pyrimethamine, 5-(4-chlorophenyl)-6-ethylpyrimidine-2,4-diamine]",,97.6,,28.5,24.2,3.82,7.5,,17,3.8,,,,
"Nc1nc(N)c2nc(-c3ccccc3)c(N)nc2n1 [Triamterene, 6-phenylpteridine-2,4,7-triamine]",,72.7,,23,17.3,1.66,,,,,14.8,48,11.4,18.9
